# Assay results reported in PMC7614683, “A small molecule PI3Kα activator for cardioprotection and neuroregeneration” (Nature, 2023).
# Read-outs that look alike come from different tables or passages of the source.
# Key:
# Test in all cases: SelectScreen Z-LYTE kinase activity assay (SI Table 6)
# Assay type in all cases: biochemical
# [1] = molecular target: protein kinases of the Z-LYTE panel (Homo sapiens, UniProt P04626)
# Method in brief: (§1)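 A single compound concentration of 1 μM was profiled in the vendor's Adapta, Lantha and Z-LYTE kinase assays. In gel-based follow-ups with 200 μM compound, phosphorylation was resolved on Phos-tag SDS-PAGE and quantified by Coomassie. The ATM run used 1 mM ATP with GST-p53 for 30 min, and the mTORC1 run used 250 μM ATP with 4E-BP1 for 3 h.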
# [2] = molecular target: protein kinases of the Z-LYTE panel (Homo sapiens, UniProt P04049, Y340D/Y341D); settings: RAF1 (cRAF) Y340D Y341D, 1000 nM, [ATP] 100 μM
# Sequence of protein kinases of the Z-LYTE panel (Homo sapiens, UniProt P04049, Y340D/Y341D) (P04049 whole entry Y340D/Y341D): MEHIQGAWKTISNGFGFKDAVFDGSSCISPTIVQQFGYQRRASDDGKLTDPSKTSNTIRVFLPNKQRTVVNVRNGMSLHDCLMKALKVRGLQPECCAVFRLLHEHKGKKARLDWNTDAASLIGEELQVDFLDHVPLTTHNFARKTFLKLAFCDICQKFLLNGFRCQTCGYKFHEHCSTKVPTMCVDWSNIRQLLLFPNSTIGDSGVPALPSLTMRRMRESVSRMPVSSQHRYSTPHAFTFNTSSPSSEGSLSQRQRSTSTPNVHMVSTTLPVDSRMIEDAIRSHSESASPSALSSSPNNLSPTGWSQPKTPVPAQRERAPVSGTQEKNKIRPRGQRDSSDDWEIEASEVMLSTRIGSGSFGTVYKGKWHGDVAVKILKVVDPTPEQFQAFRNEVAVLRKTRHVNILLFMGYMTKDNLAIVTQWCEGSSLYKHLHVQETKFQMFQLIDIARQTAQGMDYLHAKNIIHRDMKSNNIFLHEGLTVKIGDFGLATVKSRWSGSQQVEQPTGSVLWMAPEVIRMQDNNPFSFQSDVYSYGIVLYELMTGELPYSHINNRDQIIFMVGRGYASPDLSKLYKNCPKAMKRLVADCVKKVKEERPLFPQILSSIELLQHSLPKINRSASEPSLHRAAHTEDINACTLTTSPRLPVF
# Method in brief: as §1
# [3] = molecular target: protein kinases of the Z-LYTE panel (Homo sapiens, UniProt Q96SB4)
# Method in brief: as §1
# [4] = molecular target: T1, protein kinases of the Z-LYTE panel (Homo sapiens, UniProt O14920)
# T1 sequence (O14920 1-756): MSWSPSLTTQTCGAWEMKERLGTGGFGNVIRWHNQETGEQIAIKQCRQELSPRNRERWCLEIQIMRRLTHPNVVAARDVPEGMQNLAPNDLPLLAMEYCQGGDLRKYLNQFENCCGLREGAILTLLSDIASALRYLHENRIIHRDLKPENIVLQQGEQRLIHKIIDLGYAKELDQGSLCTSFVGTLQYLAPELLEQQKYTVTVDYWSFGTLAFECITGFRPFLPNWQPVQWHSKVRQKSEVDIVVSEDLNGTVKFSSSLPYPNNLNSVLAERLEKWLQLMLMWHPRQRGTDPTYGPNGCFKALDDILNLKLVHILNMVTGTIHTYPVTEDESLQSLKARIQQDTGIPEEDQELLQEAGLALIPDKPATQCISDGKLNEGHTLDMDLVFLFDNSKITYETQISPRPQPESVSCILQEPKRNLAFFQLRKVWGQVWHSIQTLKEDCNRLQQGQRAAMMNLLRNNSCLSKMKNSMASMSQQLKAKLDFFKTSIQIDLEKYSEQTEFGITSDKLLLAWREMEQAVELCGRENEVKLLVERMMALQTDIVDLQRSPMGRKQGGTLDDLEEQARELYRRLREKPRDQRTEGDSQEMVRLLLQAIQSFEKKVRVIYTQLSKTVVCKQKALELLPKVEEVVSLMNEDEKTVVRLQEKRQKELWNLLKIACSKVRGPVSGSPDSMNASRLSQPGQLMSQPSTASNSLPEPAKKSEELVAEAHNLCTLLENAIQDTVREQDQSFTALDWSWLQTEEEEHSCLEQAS
# Method in brief: as §1
# [5] = molecular target: protein kinases of the Z-LYTE panel (Homo sapiens, UniProt O96013)
# Sequence of protein kinases of the Z-LYTE panel (Homo sapiens, UniProt O96013) (O96013 whole entry): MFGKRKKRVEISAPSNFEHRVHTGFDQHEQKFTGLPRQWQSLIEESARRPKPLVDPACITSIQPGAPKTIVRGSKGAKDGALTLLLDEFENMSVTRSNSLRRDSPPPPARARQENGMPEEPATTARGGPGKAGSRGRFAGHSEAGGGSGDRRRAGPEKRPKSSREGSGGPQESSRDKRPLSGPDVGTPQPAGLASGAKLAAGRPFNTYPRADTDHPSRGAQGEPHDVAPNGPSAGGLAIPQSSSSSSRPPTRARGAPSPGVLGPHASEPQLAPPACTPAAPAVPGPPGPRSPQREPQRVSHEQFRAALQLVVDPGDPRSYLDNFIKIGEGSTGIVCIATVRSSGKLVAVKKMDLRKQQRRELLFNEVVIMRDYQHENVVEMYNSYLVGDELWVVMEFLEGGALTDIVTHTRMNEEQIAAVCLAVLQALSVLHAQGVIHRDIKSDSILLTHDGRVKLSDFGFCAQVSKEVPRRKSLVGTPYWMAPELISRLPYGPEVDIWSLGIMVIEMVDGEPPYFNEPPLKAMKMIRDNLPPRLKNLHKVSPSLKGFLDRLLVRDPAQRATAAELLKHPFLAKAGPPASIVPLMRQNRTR
# Method in brief: as §1
# [6] = molecular target: protein kinases of the Z-LYTE panel (Homo sapiens, UniProt P43405)
# Method in brief: as §1
# [7] = molecular target: protein kinases of the Z-LYTE panel (Homo sapiens, UniProt O75582)
# Sequence of protein kinases of the Z-LYTE panel (Homo sapiens, UniProt O75582) (O75582 whole entry): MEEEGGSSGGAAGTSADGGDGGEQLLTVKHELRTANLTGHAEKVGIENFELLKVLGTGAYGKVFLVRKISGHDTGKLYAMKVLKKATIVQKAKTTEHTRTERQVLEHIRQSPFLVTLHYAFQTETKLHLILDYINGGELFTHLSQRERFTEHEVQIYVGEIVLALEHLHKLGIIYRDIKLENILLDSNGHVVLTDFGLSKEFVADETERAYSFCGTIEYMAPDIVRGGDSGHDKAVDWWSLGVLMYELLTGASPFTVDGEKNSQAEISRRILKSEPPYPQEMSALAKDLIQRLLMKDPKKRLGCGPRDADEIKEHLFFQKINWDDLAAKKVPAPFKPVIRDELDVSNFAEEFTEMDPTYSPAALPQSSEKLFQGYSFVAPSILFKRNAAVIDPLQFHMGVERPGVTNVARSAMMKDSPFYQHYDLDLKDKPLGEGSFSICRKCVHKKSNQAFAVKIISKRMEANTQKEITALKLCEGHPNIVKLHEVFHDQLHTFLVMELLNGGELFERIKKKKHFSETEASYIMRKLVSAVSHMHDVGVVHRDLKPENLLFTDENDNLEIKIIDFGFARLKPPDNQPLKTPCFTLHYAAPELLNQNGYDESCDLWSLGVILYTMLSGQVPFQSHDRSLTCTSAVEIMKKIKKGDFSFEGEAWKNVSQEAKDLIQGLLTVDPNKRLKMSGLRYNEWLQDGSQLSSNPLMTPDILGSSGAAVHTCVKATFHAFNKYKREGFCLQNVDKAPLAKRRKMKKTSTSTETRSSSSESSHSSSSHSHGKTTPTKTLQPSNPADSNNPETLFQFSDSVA
# Method in brief: as §1
# [8] = molecular target: protein kinases of the Z-LYTE panel (Homo sapiens, UniProt P53350)
# Method in brief: as §1
# [9] = molecular target: protein kinases of the Z-LYTE panel (Homo sapiens, UniProt P07948)
# Sequence of protein kinases of the Z-LYTE panel (Homo sapiens, UniProt P07948) (P07948 whole entry): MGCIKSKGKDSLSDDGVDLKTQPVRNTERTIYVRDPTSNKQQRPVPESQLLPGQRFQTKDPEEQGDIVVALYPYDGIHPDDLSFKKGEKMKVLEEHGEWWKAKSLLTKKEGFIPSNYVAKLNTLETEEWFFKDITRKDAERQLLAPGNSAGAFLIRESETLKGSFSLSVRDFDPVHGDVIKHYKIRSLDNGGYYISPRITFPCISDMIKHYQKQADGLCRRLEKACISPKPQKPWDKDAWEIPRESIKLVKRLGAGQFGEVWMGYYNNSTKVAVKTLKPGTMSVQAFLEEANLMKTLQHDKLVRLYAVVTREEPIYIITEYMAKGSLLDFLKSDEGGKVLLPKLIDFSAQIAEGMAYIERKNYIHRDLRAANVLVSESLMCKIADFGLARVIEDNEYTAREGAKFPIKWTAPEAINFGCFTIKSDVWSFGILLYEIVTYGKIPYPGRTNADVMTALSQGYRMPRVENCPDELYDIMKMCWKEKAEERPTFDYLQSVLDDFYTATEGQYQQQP
# Method in brief: as §1
# [10] = molecular target: protein kinases of the Z-LYTE panel (Homo sapiens, UniProt P06493)
# Sequence of protein kinases of the Z-LYTE panel (Homo sapiens, UniProt P06493) (P06493 whole entry): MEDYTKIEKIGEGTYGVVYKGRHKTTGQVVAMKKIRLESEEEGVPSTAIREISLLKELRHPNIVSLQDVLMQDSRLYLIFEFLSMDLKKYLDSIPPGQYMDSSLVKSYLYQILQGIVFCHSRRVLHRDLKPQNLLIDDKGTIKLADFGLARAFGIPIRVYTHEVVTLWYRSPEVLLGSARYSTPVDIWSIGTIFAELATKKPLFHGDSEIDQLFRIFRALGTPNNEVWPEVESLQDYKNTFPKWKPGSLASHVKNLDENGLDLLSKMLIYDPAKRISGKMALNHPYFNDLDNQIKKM
# Method in brief: as §1
# [11] = molecular target: protein kinases of the Z-LYTE panel (Homo sapiens, UniProt Q06187)
# Sequence of protein kinases of the Z-LYTE panel (Homo sapiens, UniProt Q06187) (Q06187 whole entry): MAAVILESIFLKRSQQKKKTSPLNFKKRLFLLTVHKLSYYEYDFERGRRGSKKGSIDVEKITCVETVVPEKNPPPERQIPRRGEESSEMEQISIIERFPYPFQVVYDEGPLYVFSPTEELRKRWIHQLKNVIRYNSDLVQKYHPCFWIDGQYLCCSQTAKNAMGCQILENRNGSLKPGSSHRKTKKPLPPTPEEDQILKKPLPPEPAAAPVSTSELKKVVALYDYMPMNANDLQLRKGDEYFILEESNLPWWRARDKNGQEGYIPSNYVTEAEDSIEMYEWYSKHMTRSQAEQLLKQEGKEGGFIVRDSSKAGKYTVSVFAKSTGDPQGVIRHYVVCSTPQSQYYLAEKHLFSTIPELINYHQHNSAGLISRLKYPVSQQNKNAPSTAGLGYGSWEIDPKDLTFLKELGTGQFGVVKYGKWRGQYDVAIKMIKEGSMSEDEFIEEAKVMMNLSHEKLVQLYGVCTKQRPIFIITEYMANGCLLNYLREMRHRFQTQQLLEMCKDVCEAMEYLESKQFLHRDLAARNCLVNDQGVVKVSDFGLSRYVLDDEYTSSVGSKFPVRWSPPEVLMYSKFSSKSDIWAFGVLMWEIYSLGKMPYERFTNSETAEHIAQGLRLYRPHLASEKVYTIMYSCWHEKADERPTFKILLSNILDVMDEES
# Method in brief: as §1
# [12] = molecular target: protein kinases of the Z-LYTE panel (Homo sapiens, UniProt P17612)
# Method in brief: as §1
# Sequence of protein kinases of the Z-LYTE panel (Homo sapiens, UniProt P04626) (P04626 23-1255): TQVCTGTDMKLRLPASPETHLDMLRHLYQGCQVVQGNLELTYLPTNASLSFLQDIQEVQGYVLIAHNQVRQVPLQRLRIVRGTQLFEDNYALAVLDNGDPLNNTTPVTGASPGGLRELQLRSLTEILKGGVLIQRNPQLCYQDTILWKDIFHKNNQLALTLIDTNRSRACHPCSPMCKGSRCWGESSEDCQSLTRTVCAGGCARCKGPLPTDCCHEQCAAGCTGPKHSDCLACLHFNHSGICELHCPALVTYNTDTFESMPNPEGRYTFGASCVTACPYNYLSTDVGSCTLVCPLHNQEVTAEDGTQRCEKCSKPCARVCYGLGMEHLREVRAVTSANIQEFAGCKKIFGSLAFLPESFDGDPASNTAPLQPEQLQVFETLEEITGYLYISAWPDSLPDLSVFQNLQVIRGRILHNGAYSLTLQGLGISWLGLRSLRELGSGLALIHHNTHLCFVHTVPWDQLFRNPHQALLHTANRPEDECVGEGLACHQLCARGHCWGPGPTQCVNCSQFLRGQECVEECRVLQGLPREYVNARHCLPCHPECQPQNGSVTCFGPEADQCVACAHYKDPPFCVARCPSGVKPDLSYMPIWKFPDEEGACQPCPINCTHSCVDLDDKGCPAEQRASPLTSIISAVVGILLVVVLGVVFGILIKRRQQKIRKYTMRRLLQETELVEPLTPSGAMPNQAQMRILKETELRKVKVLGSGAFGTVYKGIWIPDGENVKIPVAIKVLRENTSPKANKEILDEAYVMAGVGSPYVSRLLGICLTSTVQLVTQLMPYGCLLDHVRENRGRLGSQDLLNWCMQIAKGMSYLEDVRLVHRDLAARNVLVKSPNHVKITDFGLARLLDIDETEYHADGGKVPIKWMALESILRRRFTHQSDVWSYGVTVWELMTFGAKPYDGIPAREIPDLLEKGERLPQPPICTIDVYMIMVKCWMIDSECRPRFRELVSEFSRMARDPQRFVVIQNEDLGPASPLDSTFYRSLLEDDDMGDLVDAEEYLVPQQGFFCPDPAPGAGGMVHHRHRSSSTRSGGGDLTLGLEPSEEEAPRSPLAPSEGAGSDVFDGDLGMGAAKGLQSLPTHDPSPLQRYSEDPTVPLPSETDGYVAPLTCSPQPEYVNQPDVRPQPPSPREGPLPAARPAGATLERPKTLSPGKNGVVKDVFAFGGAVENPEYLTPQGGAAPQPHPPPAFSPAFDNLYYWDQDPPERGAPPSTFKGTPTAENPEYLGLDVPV
smiles,measurement,setting,value
CCN1CCN(c2ccc(Nc3cc(Nc4cccc5c4N(C(C)=O)CC5)ccn3)cc2)CC1 [Compound 1938],inhibition at 1 µM,[1]; read-out: % Inhibition Point 1,-2.48%
same,inhibition at 1 µM,[1]; read-out: % Inhibition Point 2,2.33%
same,inhibition at 1 µM,[1]; read-out: % Inhibition mean,-0.0739%
same,inhibition at 1 µM,[2]; read-out: % Inhibition Point 1,5.53%
same,inhibition at 1 µM,[2]; read-out: % Inhibition Point 2,8%
same,inhibition at 1 µM,[2]; read-out: % Inhibition mean,6.59%
same,inhibition at 1 µM,[3]; read-out: % Inhibition Point 1,1.56%
same,inhibition at 1 µM,[3]; read-out: % Inhibition Point 2,1.35%
same,inhibition at 1 µM,[3]; read-out: % Inhibition mean,1.46%
same,inhibition at 1 µM,[4]; read-out: % Inhibition Point 1,8.52%
same,inhibition at 1 µM,[4]; read-out: % Inhibition Point 2,7%
same,inhibition at 1 µM,[4]; read-out: % Inhibition mean,7.61%
same,inhibition at 1 µM,[5]; read-out: % Inhibition Point 1,-3.77%
same,inhibition at 1 µM,[5]; read-out: % Inhibition Point 2,-2.13%
same,inhibition at 1 µM,[5]; read-out: % Inhibition mean,-3%
same,inhibition at 1 µM,[6]; read-out: % Inhibition Point 1,3%
same,inhibition at 1 µM,[6]; read-out: % Inhibition Point 2,3.66%
same,inhibition at 1 µM,[6]; read-out: % Inhibition mean,3.32%
same,inhibition at 1 µM,[7]; read-out: % Inhibition Point 1,1.64%
same,inhibition at 1 µM,[7]; read-out: % Inhibition Point 2,4%
same,inhibition at 1 µM,[7]; read-out: % Inhibition mean,3%
same,inhibition at 1 µM,[8]; read-out: % Inhibition Point 1,2.86%
same,inhibition at 1 µM,[8]; read-out: % Inhibition Point 2,3.28%
same,inhibition at 1 µM,[8]; read-out: % Inhibition mean,3%
same,inhibition at 1 µM,[9]; read-out: % Inhibition Point 1,11%
same,inhibition at 1 µM,[9]; read-out: % Inhibition Point 2,9%
same,inhibition at 1 µM,[9]; read-out: % Inhibition mean,10%
same,inhibition at 1 µM,[10]; read-out: % Inhibition Point 1,5.46%
same,inhibition at 1 µM,[10]; read-out: % Inhibition Point 2,3.74%
same,inhibition at 1 µM,[10]; read-out: % Inhibition mean,4.6%
same,inhibition at 1 µM,[11]; read-out: % Inhibition Point 1,9%
same,inhibition at 1 µM,[11]; read-out: % Inhibition Point 2,8%
same,inhibition at 1 µM,[11]; read-out: % Inhibition mean,9%
same,inhibition at 1 µM,[12]; read-out: % Inhibition Point 1,3%
same,inhibition at 1 µM,[12]; read-out: % Inhibition Point 2,5%
same,inhibition at 1 µM,[12]; read-out: % Inhibition mean,4%
